Laboratory results reported in patent publication US6307080A, “Water-soluble zinc pyruvates or their hydrates, method for the product ion thereof and their use” (SKW Trostberg Aktiengesellschaft, priority 1998, dated 2001).

How the values were obtained:
type II diabetics = conditions: cited from earlier work
[1] = system: influenza A/Chile/1/83 or influenza B/Singapore/27/79 (viral hemagglutination of erythrocytes); test: Inhibition of influenza-induced viral hemagglutination (vHAI) of erythrocytes (RBC); type: cell-based, influenza A and influenza B viruses; conditions: Table 1; for IC50: read-out: HAI IC50
macrophages [2] = test: Inhibition of superoxide (HO2) release from activated macrophages (cytochrome C reduction); type: cell-based; conditions: in words
macrophages [3] = test: Binding/association of zinc pyruvate to macrophages (equilibrium dialysis)
[4] = system: influenza A/Chile/1/83 or influenza B/Singapore/27/79 in MDCK cells; type: cell-based, influenza A and influenza B viruses; conditions: Table 1; for Plaque (plaque reduction assay): concentration in plaque reduction assay, MDCK cells, 30 min treatment; for Plaque Reduction: percentage reduction in number of plaque per unit volume (well), 30 min
Solubility = type: physicochemical; conditions: product of Berzelius's instructions, identified as zinc parapyruvate

Compound | IC50 [1] | Potency HAI [1] | Plaque (plaque reduction assay) [4] | Plaque Reduction [4] | also measured
[Zn] [zinc] | – | – | – | – | average fasting blood sugar (type II diabetics; after administration of zinc for 6 weeks, decrease from 250, Perger and coworkers): 142 mg %; fasting and postprandial blood sugar level (type II diabetics; other studies, zinc administration): decreases markedly
[O]=[Zn] [ZnO.H2 O] | ~200 µM | – | – | – | –
zinc pyruvate | 25.3 µM | 19.9 | 90.5 µM | 67% | inhibitory effect on the release of HO2 (respiratory burst activity) (macrophages [2]): regulatory and in part inhibitory effect; binding constant (macrophages [3]; macrophages, cell count of 10^5, read-out: binding constant determined by equilibrium dialysis): 150 nM; association constant of zinc pyruvate to the macrophages (macrophages [3]; under these in-vitro conditions): 150 nM; lysis of RBC cells begins at (erythrocytes (RBC)): 1000 µg/mL
[Cl-].[Cl-].[Zn+2] [ZnCl2] | 100 µM | 5.0 | 1200 µM | 20% | –
CC(O)(CC(=O)C(=O)[O-])C(=O)[O-].[Zn+2] (centres unmarked) [zinc parapyruvate] | – | – | – | – | solubility (Solubility): sparingly soluble
O.[O]=[Zn] [ZnO.H2 O] | – | 4.5 | 1700 µM | 15% | –
CC(=O)[O-].CC(=O)[O-].[Zn+2] [Zn(Ac)2] | 150 µM | 6.0 | 1700 µM | 15% | –
